Key:
Assay type in all cases: in vivo
[1] = test system: Myzus persicae (Green Peach Aphid); assay: whole plant or invertebrate; settings: foliar, 144 h, sunflower leaf discs sprayed, 6 days incubation
Protocol: Example B1: Activity Against Myzus persicae (Green Peach Aphid) (Mixed Population, Feeding/Residual Contact Activity, Preventive)
Sunflower leaf discs were placed on agar in a 24-well microtiter plate and sprayed with test solutions. After drying, the leaf discs were infested with an aphid population of mixed ages. After an incubation period of 6 days, samples were checked for mortality and special effects (e.g. phytotoxicity).

Bemisia tabaci = assay: whole plant or invertebrate; settings: foliar, 168 h, cotton leaf discs sprayed, adult white flies, 7 DAT
Protocol: Example B3: Activity Against Bemisia tabaci, (Adults on Cotton, Contact, Preventative)
Cotton leaf discs are placed on agar in a 24-well microtiter plate and sprayed with test solutions. After drying, the leaf discs are infested with adult white flies. After an incubation period of 7 DAT, samples are checked for mortality and special effects (e.g. phytotoxicity).

[2] = test system: Rhopalosiphum padi (Bird Cherry Oat Aphid); assay: Activity against Rhopalosiphum padi, barley, seed treatment, mixed population, systemic/feeding activity, preventive
Protocol: Example B5: Activity Against Rhopalosiphum padi (Bird Cherry Oat Aphid, Barley) (Seed Treatment) Mixed Population, Systemic/Feeding Activity, Preventive
The barley seeds were coated with the active ingredients as described in the formulation example F9 above.
A treated barley seed was sown in a 350 ml pot filled with soil. Two weeks after sowing the barley seedling was infested with an aphid population of mixed stages. After an incubation period of seven days the grade of efficacy was estimated and expressed in percentage.
Activity against Rhopalosiphum padi (Bird Cherry Oat Aphid, barley) (seed treatment) mixed population, systemic/feeding activity, preventive: […]

[3] = test system: Myzus persicae (Green Peach Aphid); assay: whole plant or invertebrate; settings: 144 h, pea seedlings, roots in test solution, 6 days after introduction
Text: Example B2: Activity Against Myzus persicae (Green Peach Aphid) (Mixed Population, Systemic/Feeding Activity, Curative)
Pea seedlings, infested with an aphid population of mixed ages, were placed with the roots directly in the test solutions. 6 days after introduction, samples were checked for mortality and special effects on the plant.

Structure (SMILES) | mortality at 200 ppm [1] | mortality at 200 ppm (Bemisia tabaci) | Mortality (%) ([2]; 0.01 mg ai/seed) | Mortality (%) ([2]; 0.03 mg ai/seed) | Mortality (%) ([2]; 0.1 mg ai/seed) | Mortality (%) ([2]; 0.3 mg ai/seed) | Mortality (%) ([2]; 1 mg ai/seed) | mortality at 24 ppm [3]
Cc1cccnc1-n1ncc(C(=O)N(C)c2cccnc2)c1C [Compound 1.001, 1-(3-methylpyridin-2-yl)-5-methyl-1H-pyrazole-4-carboxylic acid methyl-pyridin-3-yl-amide] | ≥ 80% | > 80% | 70% | 85% | 95% | 99% | 99% | > 80%
Cc1cc(Br)cnc1-n1ncc(C(=O)N(C)c2cccnc2)c1C [Compound 1.003, 1-(5-bromo-3-methyl-2-pyridyl)-N,5-dimethyl-N-(3-pyridyl)pyrazole-4-carboxamide] | ≥ 80% |  |  |  |  |  |  | 
Cc1cc(C#N)cnc1-n1ncc(C(=O)N(C)c2cccnc2)c1C [Compound 1.004, 1-(5-cyano-3-methyl-2-pyridyl)-N,5-dimethyl-N-(3-pyridyl)pyrazole-4-carboxamide] | ≥ 80% |  |  |  |  |  |  | > 80%
CCc1cccnc1-n1ncc(C(=O)N(C)c2cccnc2)c1C [Compound 1.025, 1-(3-ethyl-2-pyridyl)-N,5-dimethyl-N-(3-pyridyl)pyrazole-4-carboxamide] | ≥ 80% |  |  |  |  |  |  | 
Cc1cccnc1-n1ncc(C(=O)N(C)c2ccc[n+]([O-])c2)c1C [Compound 1.079, 1-(3-methylpyridin-2-yl)-5-methyl-1H-pyrazole-4-carboxylic acid methyl-pyridin-N-oxide-3-yl-amide] | ≥ 80% |  |  |  |  |  |  | > 80%
Cc1ccc(Cl)nc1-n1ncc(C(=O)N(C)c2ccnnc2)c1C [Compound 1.230, 1-(6-chloro-3-methyl-2-pyridyl)-N,5-dimethyl-N-pyridazin-4-yl-pyrazole-4-carboxamide] | ≥ 80% | > 80% |  |  |  |  |  | 
Cc1c(C(=O)N(C)c2cccnc2)cnn1-c1ncccc1Cl [Compound 877, reference compound] |  |  | 0% | 0% | 42% | 63% | 84% | 

Source: patent publication US9750253B2, “Pesticidally active substituted pyridyl carboxamides” (Syngenta Participations AG, priority 2013, dated 2017)
